Experimental data: PubChem BioAssay (NCI)
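In this assay, cells in 96-well plates receive the compound at five concentrations for 48 hours. Endpoints are linearly interpolated between the surrounding concentrations. GI50 is the concentration that inhibits growth by half. TGI is the concentration that stops growth completely.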

Assays:
Assay in all cases: NCI anticancer screen, dose series, 48 h
EKVX NSCLC = tested on: EKVX NSCLC
NCI/ADR-RES ovarian = tested on: NCI/ADR-RES ovarian
TK-10 renal = tested on: TK-10 renal
SNB-75 CNS = tested on: SNB-75 CNS
HS 578T breast = tested on: HS 578T breast
OVCAR-8 ovarian = tested on: OVCAR-8 ovarian
HCT-116 colon = tested on: HCT-116 colon
MDA-MB-435 = tested on: MDA-MB-435
CCRF-CEM leukemia = tested on: CCRF-CEM leukemia
OVCAR-5 ovarian = tested on: OVCAR-5 ovarian

Compound	TGI (EKVX NSCLC) [µM]	TGI (NCI/ADR-RES ovarian) [µM]	TGI (TK-10 renal) [µM]	TGI (SNB-75 CNS) [µM]	TGI (HS 578T breast) [µM]	TGI (OVCAR-8 ovarian) [µM]	TGI (HCT-116 colon) [µM]	TGI (MDA-MB-435) [µM]	TGI (CCRF-CEM leukemia) [µM]	TGI (OVCAR-5 ovarian) [µM]	GI50 (EKVX NSCLC) [µM]	GI50 (SNB-75 CNS) [µM]
CCCCCCCCCCCCCCCCCCOCC(O)COP(=O)(O)OCC1OC(n2cc(F)c(=O)[nH]c2=O)CC1O (configuration not stated)	> 74.2	22	24.6	27.8	23.5	18.9	19.6	> 52.1	16.5	26.3		
Cc1[nH]c(-c2ccccc2)c(-c2ccc(Cl)cc2)c1C(=O)ONC(=O)c1ccccc1	9.77	14.2	9.76	15.1	5.72	17	5.24	11.9	> 21.8	20		
O=C(O)c1ccccc1/C=N\NC1=NCCCCN1	> 100	> 100	> 100	> 100	> 100	> 100	> 100	> 100	> 100	> 100		
CCOP(=O)(OCC)C(Nc1ccc(F)cc1)c1cccc([N+](=O)[O-])c1 (configuration not stated)	> 100	> 100	> 100	> 100	> 100	> 100	> 100	> 100	> 100	> 100		
COC1/C=C/C(C)C(C(C)C(OC)C(C)CCC(=O)C(C)C(CCC(=O)O)OC)OC(=O)/C=C/C=C(\C)CC(OC)CC2=CC(=O)O[C@@H](C(C)C(OC)CC(OC)/C=C/C(C)C(OC)C1)[C@H]2O (some centres not stated)	> 5	> 5	> 5	2.22	> 5	> 5	> 5	> 5	> 1.58	> 5		
CCN(CC)CCCNc1ccc2nnn3c4ccc(O)cc4c(=O)c1c23	29.8	22.9	17.6	20.2	31	12.9	16.3	22.1	39.8	26.8		
CSC(=NC1=NC(C(F)(F)F)(C(F)(F)F)N=C(c2ccccc2)O1)SC	42.3	90.9	> 100	18.9	72.5	> 100	16.3	55	> 100	82.3		
CCOC(=O)C(Cc1ccccc1)(Cc1ccc(O)cn1)NC(=O)c1ccccc1 (configuration not stated)	> 100	> 100	> 100	> 100	63.6	> 100	68.4	30.1	> 100	> 100		
CSc1ncc2c(n1)-c1ccccc1OC2N1CCCC1 (configuration not stated)	> 100	> 100	> 100	> 100	> 100	> 100	> 100	> 100	> 100	> 100		
CCOC(=O)c1c(N2CCOCC2)[nH]c(=O)c(C(c2ccc(OC)cc2)c2c(O)c(C(=O)OCC)c(N3CCOCC3)[nH]c2=O)c1O	> 100	> 100	> 100	> 100	> 100	> 100	> 100	> 100	> 100	> 100		
COc1cc2ccnc3c2c(c1O)N(C)C=C3	33.4	54.5	32.9	38.8	53.1	> 46.8	16.4	> 86.5	> 100	33.9		
NC(=O)CC(Nc1ncc2c(n1)-c1ccccc1OC2)C(=O)O (configuration not stated)	> 100	> 100	> 100	> 100	> 100	> 100	> 100	> 100	> 100	> 100		
O=C(/C=C/c1ccc([N+](=O)[O-])cc1)c1nc2ccccc2[nH]1	> 100	> 100	> 37.8	> 100	> 100	> 100	> 38.7	> 100	> 100	24.1		
CC1(C)[C@@H]2C[C@H]1c1cnc(-c3ccccn3)cc1C2[C@@H]1c2cc(-c3ccccn3)ncc2[C@@H]2C[C@H]1C2(C)C (some centres not stated)	> 100	> 100	75.1	> 100	> 100	> 100	> 100	> 100	> 100	> 100		
CSCCC(NC(=O)OC(C)(C)C)C(=O)NCCNc1ccc(NCCNC(=O)C(CCSC)NC(=O)OC(C)(C)C)c2c1C(=O)c1ccccc1C2=O (configuration not stated)	> 27.7	> 100	15.1	8.54	31.2	5.4	> 29.6	7.49	> 38	17.2		
COc1ccc(-c2c(C#N)c(-c3ccccc3)n(NS(=O)(=O)c3ccccc3)c(=O)c2C#N)cc1	> 100	> 100	> 100	> 100	> 100	> 100	> 100	> 100	> 100	> 100		
CCOC(=O)C1=C(C)NC(=S)NC1c1cccc(O)c1 (configuration not stated)	> 100	> 100	> 100	> 95.4	> 100	> 100	> 100	38	> 89.9	> 100		
N#CCc1nc(C#N)c(N)o1	> 100	> 100	> 100	> 100	> 100	> 100	> 100	> 100	> 100	> 100	> 100	> 100
CC[N+](C)(CC)CCN1C(=O)c2ccccc2S1(=O)=O	> 100	> 100	> 100	> 100	> 100	> 100	> 100	> 100	> 100	> 100		
